For one assay, the system named is MCF7. The assay can be described thus: Uptake of AS1411 by macropinocytosis (MP). Type of assay: cell-based. As to conditions: amiloride treatment, MCF7 cells. From the text: (§1) There was little effect of amiloride treatment on uptake of FL-CRO in either DU145 cancer cells or non-malignant Hs27 cells (FIG. 9B). […] These studies also confirmed the previous results that there was higher overall uptake of FL-AS1411 in Hs27 cells than in DU145 cells.
(§2) It has recently been discovered that AS1411 can stimulate macropinocytosis (MP) in cancer cells and this finding was verified by several different methods and in multiple cancer cell lines (Table 1).

The test system of a further assay is MDA-MB-231. The assay can be described thus: Uptake of AS1411 by macropinocytosis (MP). Type of assay: cell-based. As to conditions: amiloride treatment, MDA-MB-231 cells.
Source text: as §1, §2

Assay [1] relates to Hs27 cells. The assay can be described thus: Uptake of fluorophore-labeled oligonucleotides by flow cytometry. Type of assay: cell-based, human. On the procedure:
(§3) FIG. 1 are graphs showing that AS1411 cell internalization is an active process. Cells were plated 18 h before uptake analysis. After incubation as described, cells were washed with ice-cold PBS, incubated with 1 μg/ml 7-AAD, harvested and resuspended in 1% paraformaldehyde containing 2 μg/ml actinomycin D, then analyzed by flow cytometry. (Panel A) DU145 cells were incubated at 37° C. with fresh complete DMEM medium containing 10 μM FL-AS1411 (black line) or 10 μM FL-CRO (gray line) for the time indicated. (Panel B) DU145 cells were incubated for 2 h at 37° C. in complete or serum-free DMEM medium containing 10 μM FL-AS1411, or 10 μM FL-CRO, or no oligonucleotide. (Panel C) Various cell lines were incubated with 10 μM FL-AS1411 (black outline histogram), 10 μM FL-CRO (gray outline histogram) or without DNA (solid gray histogram) at 37° C. or 4° C. for 2 h. All experiments were repeated at least three times. Data are mean of three independent samples; bars, SE; *(p<0.05).
(§4) FIG. 2 are graphs showing that AS1411 is internalized by different endocytic mechanisms in DU145 cancer cells and in non-malignant Hs27 cells. DU145 or Hs27 cells were plated 18 h before uptake analysis. Cells were pre-treated as described with inhibitor (gray histogram) or the corresponding vehicle control (black histogram) before addition of 10 μM FL-AS1411 and incubation at 37° C. for 2 h. After incubation, cells were harvested and analyzed by flow cytometry. Pre-treatment conditions were at 37° C. with: (Panel A) 5 μM Cytochalasin D for 30 min; (Panel B) 80 μM Dynasore for 30 min; or (Panel C) 3 mM amiloride for 1 h. All experiments were repeated at least three times and representative data are shown. Solid gray histograms represent background autofluorescence of unstained cells.
(§5) FIG. 9 are graphs showing the effects of inhibitors on various endocytic pathways. DU145 or Hs27 cells were plated 18 hr before uptake analysis. (Panel A) DU145 cells were pre-treated with dynamin inhibitor, […] Dynasore (black histogram) or DMSO (gray histogram) for 30 min at 37° C. After pre-treatment, cells were treated with […] transferrin conjugated with Alexa Fluor 488 for 30 min at 37° C. (Panel B) DU145 and Hs27 cells were pre-treated with 3 mM amiloride (black histogram) or vehicle (serum-free medium, gray histogram) for 1 h at 37° C. After pre-treatment, FL-CRO was added at a concentration of 10 μM and incubated at 37° C. for 2 h. After incubation, cells were harvested and analyzed by FACS. Gray solid histogram represents unstained cells.
To analyze uptake of the oligodeoxynucleotides or dextran-10K (macropinocytic marker) by flow cytometry, 2×10^5 cells in fresh supplemented culture medium (2.5 ml) were plated into 6-well plates for 18 h. […]

For the next assay, the system named is DU145. The assay can be described thus: Uptake of AS1411 by macropinocytosis (MP). Type of assay: cell-based. The note with it: 3 mM amiloride for 1 h, then 10 μM FL-AS1411 2 h. As for the experimental part: as §4
To analyze uptake of the oligodeoxynucleotides or dextran-10K (macropinocytic marker) by flow cytometry, 2×10^5 cells in fresh supplemented culture medium (2.5 ml) were plated into 6-well plates for 18 h. After complete adhesion, the cells were incubated with 5′-FAM tagged oligodeoxynucleotides or Alexa Fluor 488 tagged dextran-10K and incubated as indicated in the Description of the Drawings. Cells were washed once with ice-cold PBS, incubated with 1 μg/ml 7-amino-actinomycin D (7-AAD) for 5 min on ice or 1 μg/ml propidium iodide (PI), and washed twice with ice-cold PBS. […]

Assay [2] concerns DU145 cells. The assay can be described thus: Uptake of fluorophore-labeled oligonucleotides by flow cytometry. Type of assay: cell-based. As for the experimental part: as §3, §4
DU145 cells were transfected for 48 h without siRNA (mock, M), or with 30 nM of one of three different nucleolin siRNAs (NCL1, NCL2, NCL3) or a control siRNA (scramble, S), or contransfected with 10 nM of each nucleolin siRNAs (mix). (Panel A) Cells were lysed and total cell lyses were analyzed by Western blotting using the antibodies shown. (Panel B) Cell-surface proteins from intact transfected DU145 cells were labeled covalently with membrane-impermeable biotinylating agent. Cells were lysed, then biotinylated plasma membrane proteins were captured with streptavidin-agarose beads and analyzed by blotting with anti-nucleolin antibody (upper panel). After stripping, the membrane was reprobed with antibodies for a plasma membrane marker (anti-pan Cadherin) and a nuclear marker (anti-histone 3) to confirm the fractionation. Total lysate (Lys) was used as control. (Panel C) The medium of transfected cells was replaced by fresh complete DMEM medium containing no oligonucleotide (gray dashed histogram) or 10 μM FL-CRO (gray solid line histogram) or 10 μM FL-AS1411 (black solid line histogram) and incubated at 37° C. for 2 h. After incubation, cells were harvested and analyzed by flow cytometry.
DU145 cells were plated 18 hr before uptake analysis. Cell medium was changed with fresh complete DMEM medium containing different concentrations of FL-AS1411 (black line) or FL-CRO (gray line), and incubated at 37° C. for 2 hrs. After incubation, cells were harvested and analyzed by flow cytometry.
as §5, with “Gray solid histogram represents unstained cells.” left out
(In general: A flow cytometer gives signals particle by particle.)

In assay [3] the test system is cancer cells (DU145, HeLa, MDA-MB-231) and non-malignant Hs27 skin fibroblasts. Put plainly: Temperature-dependence of oligonucleotide uptake by flow cytometry. Type of assay: cell-based. The note with it: 10 μM, 37° C. or 4° C. for 2 h, all cell types. On the procedure: as §3, with “*(p<0.05). […]” for “*(p<0.05).”
To determine whether AS1411 uptake occurs through an active uptake process, the temperature-dependence of AS1411 uptake in cancer cells (DU145, HeLa, MDA-MB-231) and non-malignant Hs27 skin fibroblasts was evaluated using flow cytometry. […]

For assay [4], the system named is Hs27 cells. The assay can be described thus: Confocal microscopy localization and co-localization. Type of assay: cell-based, human. As to conditions: 10 μM, 0.2 mg/ml dextran-10K, 2 h at 37° C. On the procedure: (§6) FIG. 3 are photographs showing that AS1411 co-localizes with the macropinocytic marker, dextran. DU145 or Hs27 cells were incubated with the reagents indicated, then washed and fixed. Nuclei were stained with DAPI (blue). The distribution of markers was visualized by confocal microscopy and fluorescent images were overlaid to determine co-localization as indicated by the yellow color. (Panel A) 10 μM AS1411 labeled with Alexa Fluor 488 (green) and 0.2 mg/ml dextran-10K, macropinocytic marker, labeled with Alexa Fluor 594 (red) for 2 h at 37° C. (Panel B) Experiments similar to those in Panel A but using FL-CRO in place of FL-AS1411. (Panel C) Cells incubated with 5 μg/ml transferrin labeled with Alexa Fluor 488 (green) and 0.2 mg/ml dextran-10K labeled with Alexa Fluor 594 (red) for 30 min at 37° C. (Panel D) DU145 cells incubated with 5 μg/ml transferrin labeled with Alexa Fluor 594 (red) and 10 μM AS1411 labeled with Alexa Fluor 488 (green) for 30 min at 37° C. Scale bars, 10 μm.
Cells (4×10^4) in fresh supplemented culture medium were plated on 18 mm diameter glass cover slips for 18 h. The media was removed and replaced with serum-free medium containing 10 μM oligodeoxynucleotide, dextran-10K, or transferrin and incubated as describe in the Description of the Drawings. […]

Assay [5] concerns DU145 cells. Described as above. Type of assay: cell-based. As for the experimental part: as §6
Cells (4×10^4) in fresh supplemented culture medium were plated on 18 mm diameter glass cover slips for 18 h. The media was removed and replaced with serum-free medium containing 10 μM oligodeoxynucleotide, dextran-10K, or transferrin and incubated as describe in the Description of the Drawings. After incubation, cells were washed 3 times with ice-cold PBS, fixed in 4% paraformaldehyde in PBS for 30 min at room temperature, and washed three times with PBS. After washing, the cover slips were mounted on glass slides with ProLong Antifade (Molecular Probes) according to the manufacturer's directions to inhibit photobleaching. Immunofluorescence was documented with an LSM 510 inverted confocal laser-scanning microscope (Carl Zeiss, Oberkochen, Germany) equipped with an Omnichrome argon-krypton laser. Images were obtained with a Zeiss Plan-Apo 63× oil immersion objective (1.4 NA).

Assay [6] concerns DU145 cells. Put plainly: Transferrin uptake (clathrin-dependent endocytosis) by flow cytometry. Type of assay: cell-based. On the set-up: dose or concentration left out as unconfirmed. As to conditions: for 30 min, transferrin-Alexa Fluor 488 for 30 min. On the procedure: as §5
To confirm that uptake of AS1411 occurs by endocytosis, the involvement of the actin cytoskeleton, which has been implicated in regulating endocytic pathways, was evaluated. To this end, DU145 and Hs27 cells were pre-treated with an actin polymerization inhibitor. 5 μM cytochalasin D, and assessed for FL-AS1411 uptake by flow cytometry. […]

Setting [7] is: 3 mM amiloride for 1 h, then 10 μM FL-CRO 2 h.
[8] abbreviates: 10 μM, 37° C., complete DMEM medium.
Where [9] appears, read: 80 μM dynasore, then 10 μM FL-AS1411 2 h.

As to `N=C(N)NC(=O)c1nc(Cl)c(N)nc1N` [amiloride, reference compound], the “effect of treatment on AS1411 uptake” value with MCF7 and with MDA-MB-231 was “affected the AS1411 uptake” in each case. Further, the “effect of treatment on uptake of FL-CRO” value in the assay on Hs27 cells [1] (setting [7]) and with DU145 cells [2] (setting [7]) was “little effect” throughout. Besides, the “effect of pre-treatment on FL-AS1411 uptake” value in the assay on DU145 is recorded as “reduction in FL-AS1411 uptake”.
For “5′-Fluor-d(TTTGGTGGTGGTGGTTGTGGTGGTGGTGG) [FL-AS1411]”, the “temperature dependence of uptake” value in assay [3] is “strong temperature dependence”. Further, the “co-localization with the macropinocytic marker, dextran” value is given as “not in Hs27 cells” in the assay on Hs27 cells [4] and “strongly co-localized” with DU145 cells [5] (10 μM, 0.2 mg/ml dextran-10K, 2 h at 37° C.). For the same compound, the “earliest time at which uptake was detected” value in the assay on DU145 cells [2] (setting [8]) came to 5 min. The “time after which uptake is decreasing” value in the assay on DU145 cells [2] (setting [8]) is > 8 h. Besides, in the assay with DU145 cells [2] (10 μM, 2 h at 37° C., complete or serum-free DMEM medium), the “serum dependence of uptake” value is “independent of the presence of serum”. Also, the subcellular localization entry in the assay with DU145 cells [5] (confocal microscopy, cancer and non-malignant cells) is on record as “localized in confined structures in the cytoplasm”.
For the compound `O=C(N/N=C/c1ccc(O)c(O)c1)c1cc2ccccc2cc1O` [dynasore], the results for the “effect of pre-treatment on FL-AS1411 uptake” value with Hs27 cells [1] (setting [9]) and in the assay with DU145 cells [2] (setting [9]) were “decreased the uptake of AS1411” and “slightly increased the uptake of FL-AS1411”, respectively. Moreover, the “effect of pre-treatment on uptake of transferrin” value with DU145 cells [6] is on record as “inhibited”.

The values are drawn from patent publication US20130065227A1, “METHODS OF INCREASING MACROPINOCYTOSIS IN CANCER CELLS” (priority 2010, published 2013).
